Consider eight compounds from patent US10428087B2, “Pyrimidinones as PI3K inhibitors” (Incyte Corporation, priority 2009, dated 2019).

For one assay, the target named is PI3Kα (Homo sapiens (Human), UniProt P42336). Put plainly: PI3K enzyme assay, [γ-33P]ATP filter plate (Example A2), PI3Kα. The settings on record: read-out: PI3Kα^c IC50. In kind it is biochemical. As to the method:
Materials: Lipid kinase substrate, phosphoinositol-4,5-bisphosphate (PIP2), was purchased from Echelon Biosciences (Salt Lake City, Utah). PI3K isoforms α, β, δ and γ were purchased from Millipore (Bedford, Mass.). […] The kinase reaction was conducted in clear-bottom 96-well plate from Thermo Fisher Scientific in a final volume of 24 μL. Inhibitors were first diluted serially in DMSO and added to the plate wells before the addition of other reaction components. The final concentration of DMSO in the assay was 0.5%. The PI3K assays were carried out at room temperature in 20 mM MOPS, pH 6.7, 10 mM MgCl2, 5 mM DTT and CHAPS 0.03%. The reaction mixture was prepared containing 50 μM PIP2, kinase and varying concentration of inhibitors. Reactions were initiated by the addition of ATP containing 2.2 μCi [γ-^33P]ATP to a final concentration of 1000 μM. […] Reactions were incubated for 180 min and terminated by the addition of 100 μL of 1 M potassium phosphate pH 8.0, 30 mM EDTA quench buffer. […] The filter plate was aspirated on a Millipore Manifold under vacuum and washed with 18×200 μL wash buffer containing 1 M potassium phosphate pH 8.0 and 1 mM ATP. After drying by aspiration and blotting, the plate was air dried in an incubator at 37° C. overnight. […] After the plate sealing, the radioactivity of the product was determined by scintillation counting on Topcount (Perkin-Elmer). […]

The target in a further assay is PI3Kβ (Homo sapiens (Human), UniProt P42338). Put plainly: PI3K enzyme assay, [γ-33P]ATP filter plate (Example A2), PI3Kβ. In kind it is biochemical. The conditions noted are these: read-out: PI3Kβ^c IC50. As to the method: Materials: Lipid kinase substrate, phosphoinositol-4,5-bisphosphate (PIP2), was purchased from Echelon Biosciences (Salt Lake City, Utah). PI3K isoforms α, β, δ and γ were purchased from Millipore (Bedford, Mass.). ATP, MgCl2, DTT, EDTA, MOPS and CHAPS were purchased from Sigma—Aldrich (St. Louis, Mo.). The kinase reaction was conducted in clear-bottom 96-well plate from Thermo Fisher Scientific in a final volume of 24 μL. Inhibitors were first diluted serially in DMSO and added to the plate wells before the addition of other reaction components. The final concentration of DMSO in the assay was 0.5%. The PI3K assays were carried out at room temperature in 20 mM MOPS, pH 6.7, 10 mM MgCl2, 5 mM DTT and CHAPS 0.03%. The reaction mixture was prepared containing 50 μM PIP2, kinase and varying concentration of inhibitors. Reactions were initiated by the addition of ATP containing 2.2 μCi [γ-^33P]ATP to a final concentration of 1000 μM. […] Reactions were incubated for 180 min and terminated by the addition of 100 μL of 1 M potassium phosphate pH 8.0, 30 mM EDTA quench buffer. […] After the plate sealing, the radioactivity of the product was determined by scintillation counting on Topcount (Perkin-Elmer). […]

The target in a further assay is PI3Kγ (Homo sapiens (Human), UniProt P48736). The assay is described as follows: PI3K enzyme assay, [γ-33P]ATP filter plate (Example A2), PI3Kγ. The settings on record: read-out: PI3Kγ^c IC50. Format: biochemical. As to the method: Materials: Lipid kinase substrate, phosphoinositol-4,5-bisphosphate (PIP2), was purchased from Echelon Biosciences (Salt Lake City, Utah). PI3K isoforms α, β, δ and γ were purchased from Millipore (Bedford, Mass.). ATP, MgCl2, DTT, EDTA, MOPS and CHAPS were purchased from Sigma—Aldrich (St. Louis, Mo.).
The kinase reaction was conducted in clear-bottom 96-well plate from Thermo Fisher Scientific in a final volume of 24 μL. Inhibitors were first diluted serially in DMSO and added to the plate wells before the addition of other reaction components. The final concentration of DMSO in the assay was 0.5%. The PI3K assays were carried out at room temperature in 20 mM MOPS, pH 6.7, 10 mM MgCl2, 5 mM DTT and CHAPS 0.03%. The reaction mixture was prepared containing 50 μM PIP2, kinase and varying concentration of inhibitors. Reactions were initiated by the addition of ATP containing 2.2 μCi [γ-^33P]ATP to a final concentration of 1000 μM. The final concentration of PI3K isoforms α, β, δ and γ in the assay were 1.3, 9.4, 2.9 and 10.8 nM respectively. Reactions were incubated for 180 min and terminated by the addition of 100 μL of 1 M potassium phosphate pH 8.0, 30 mM EDTA quench buffer. […] After the plate sealing, the radioactivity of the product was determined by scintillation counting on Topcount (Perkin-Elmer). […]

In assay [1] the test system is Pfeiffer cell line (diffuse large B cell lymphoma). Put plainly: Pfeiffer cell proliferation assay (Example B2). The settings on record: Pfeiffer cells, [3H]-thymidine. In kind it is cell-based. As to the method: Pfeiffer cell line (diffuse large B cell lymphoma) was purchased from ATCC (Manassas, Va.) and maintained in the culture medium recommended (RPMI and 10% FBS). To measure the anti-proliferation activity of the PI3Kδ submittals, the Pfeiffer cells were plated with the culture medium (2×10^3 cells/well/per 200 μl) into 96-well ultra-low binding plates (Corning, Corning, N.Y.), in the presence or absence of a concentration range of test compounds. After 3-4 days, [^3H]-thymidine (1 μCi/well) (PerkinElmer, Boston, Mass.) in PBS was then added to the cell culture for an additional 12 hrs before the incorporated radioactivity was separated by filtration with water through GF/B filters (Packard Bioscience, Meridenj, Conn.) and measured by liquid scintillation counting with a TopCount (Packard Bioscience). See Table 3 for data related to compounds of the invention.

In a further assay the test system is B cells. The assay is described as follows: B cell proliferation assay (Example B1). In kind it is cell-based. The conditions noted are these: purified human B cells, anti-human IgM, [3H]-thymidine. How it is done: To acquire B cells, human PBMC were isolated from the peripheral blood of normal, drug free donors by standard density gradient centrifugation on Ficoll-Hypague (GE Healthcare, Piscataway, N.J.) and incubated with anti-CD19 microbeads (Miltenyi Biotech, Auburn, Calif.). The B cells were then purified by positive immunosorting using an autoMacs (Miltenyi Biotech) according to the manufacturer's instruction.
The purified B cells (2×10^5/well/200 μL) were cultured in 96-well ultra-low binding plates (Corning, Corning, N.Y.) in RPMI1640, 10% FBS and goat F(ab′)2 anti-human IgM ([…]) (Invitrogen, Carlsbad, Calif.), in the presence of different amount of test compounds, […] [^3H]-thymidine (1 μCi/well) (PerkinElmer, Boston, Mass.) in PBS was then added to the B cell cultures for an additional 12 hrs before the incorporated radioactivity was separated by filtration with water through GF/B filters (Packard Bioscience, Meriden, Conn.) and measured by liquid scintillation counting with a TopCount (Packard Bioscience). […] See Table 2 for data related to compounds of the invention.

Chain of PI3Kβ (P42338 whole entry, species assumed, canonical isoform): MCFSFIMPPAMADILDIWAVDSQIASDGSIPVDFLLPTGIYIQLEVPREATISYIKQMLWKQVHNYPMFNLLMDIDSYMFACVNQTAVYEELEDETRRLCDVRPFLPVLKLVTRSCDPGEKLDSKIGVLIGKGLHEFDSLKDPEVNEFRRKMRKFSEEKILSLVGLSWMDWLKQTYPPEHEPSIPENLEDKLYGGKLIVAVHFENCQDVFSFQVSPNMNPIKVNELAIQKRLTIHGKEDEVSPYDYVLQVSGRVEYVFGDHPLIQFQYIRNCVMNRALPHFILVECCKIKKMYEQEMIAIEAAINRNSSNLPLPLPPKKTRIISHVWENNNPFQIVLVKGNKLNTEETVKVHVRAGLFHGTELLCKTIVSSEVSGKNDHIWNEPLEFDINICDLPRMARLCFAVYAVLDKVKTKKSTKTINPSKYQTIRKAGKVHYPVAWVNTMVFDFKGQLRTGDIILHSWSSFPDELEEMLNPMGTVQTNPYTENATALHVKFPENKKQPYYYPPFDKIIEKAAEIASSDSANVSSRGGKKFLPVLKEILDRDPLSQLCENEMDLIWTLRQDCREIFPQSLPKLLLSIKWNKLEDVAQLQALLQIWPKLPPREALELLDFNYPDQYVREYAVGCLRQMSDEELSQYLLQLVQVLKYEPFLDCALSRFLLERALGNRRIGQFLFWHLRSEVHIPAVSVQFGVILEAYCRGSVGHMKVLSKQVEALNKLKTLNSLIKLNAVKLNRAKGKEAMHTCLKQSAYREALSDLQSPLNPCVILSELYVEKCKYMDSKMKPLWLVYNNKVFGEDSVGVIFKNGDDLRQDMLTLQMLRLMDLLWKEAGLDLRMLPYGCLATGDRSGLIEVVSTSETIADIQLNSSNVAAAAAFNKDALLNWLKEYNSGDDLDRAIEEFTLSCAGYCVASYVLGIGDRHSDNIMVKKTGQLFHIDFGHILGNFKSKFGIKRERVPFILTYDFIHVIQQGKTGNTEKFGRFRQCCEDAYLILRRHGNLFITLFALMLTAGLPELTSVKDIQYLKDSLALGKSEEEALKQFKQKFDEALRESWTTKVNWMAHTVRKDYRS
Chain of PI3Kβ (P27986 whole entry partner, species assumed, canonical isoform): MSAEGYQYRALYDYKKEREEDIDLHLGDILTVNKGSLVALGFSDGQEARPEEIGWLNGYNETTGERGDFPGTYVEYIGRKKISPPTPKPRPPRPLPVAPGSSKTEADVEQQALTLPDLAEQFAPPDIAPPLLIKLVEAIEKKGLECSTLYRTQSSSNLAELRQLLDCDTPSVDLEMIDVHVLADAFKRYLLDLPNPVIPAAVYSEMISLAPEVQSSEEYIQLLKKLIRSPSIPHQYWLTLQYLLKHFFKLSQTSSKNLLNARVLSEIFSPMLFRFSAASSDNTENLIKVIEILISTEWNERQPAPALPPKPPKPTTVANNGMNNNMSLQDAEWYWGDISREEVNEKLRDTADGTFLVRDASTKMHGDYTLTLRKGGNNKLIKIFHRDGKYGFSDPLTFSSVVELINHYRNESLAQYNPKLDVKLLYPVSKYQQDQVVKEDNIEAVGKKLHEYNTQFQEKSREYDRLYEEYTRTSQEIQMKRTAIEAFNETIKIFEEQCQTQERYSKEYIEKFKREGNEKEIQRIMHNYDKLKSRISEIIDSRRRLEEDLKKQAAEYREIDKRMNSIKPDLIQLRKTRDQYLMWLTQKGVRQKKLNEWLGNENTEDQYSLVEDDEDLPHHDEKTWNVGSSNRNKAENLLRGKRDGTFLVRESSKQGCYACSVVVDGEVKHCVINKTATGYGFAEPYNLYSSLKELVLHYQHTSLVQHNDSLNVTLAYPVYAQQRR
Chain of PI3Kγ (P48736 whole entry, species assumed, canonical isoform): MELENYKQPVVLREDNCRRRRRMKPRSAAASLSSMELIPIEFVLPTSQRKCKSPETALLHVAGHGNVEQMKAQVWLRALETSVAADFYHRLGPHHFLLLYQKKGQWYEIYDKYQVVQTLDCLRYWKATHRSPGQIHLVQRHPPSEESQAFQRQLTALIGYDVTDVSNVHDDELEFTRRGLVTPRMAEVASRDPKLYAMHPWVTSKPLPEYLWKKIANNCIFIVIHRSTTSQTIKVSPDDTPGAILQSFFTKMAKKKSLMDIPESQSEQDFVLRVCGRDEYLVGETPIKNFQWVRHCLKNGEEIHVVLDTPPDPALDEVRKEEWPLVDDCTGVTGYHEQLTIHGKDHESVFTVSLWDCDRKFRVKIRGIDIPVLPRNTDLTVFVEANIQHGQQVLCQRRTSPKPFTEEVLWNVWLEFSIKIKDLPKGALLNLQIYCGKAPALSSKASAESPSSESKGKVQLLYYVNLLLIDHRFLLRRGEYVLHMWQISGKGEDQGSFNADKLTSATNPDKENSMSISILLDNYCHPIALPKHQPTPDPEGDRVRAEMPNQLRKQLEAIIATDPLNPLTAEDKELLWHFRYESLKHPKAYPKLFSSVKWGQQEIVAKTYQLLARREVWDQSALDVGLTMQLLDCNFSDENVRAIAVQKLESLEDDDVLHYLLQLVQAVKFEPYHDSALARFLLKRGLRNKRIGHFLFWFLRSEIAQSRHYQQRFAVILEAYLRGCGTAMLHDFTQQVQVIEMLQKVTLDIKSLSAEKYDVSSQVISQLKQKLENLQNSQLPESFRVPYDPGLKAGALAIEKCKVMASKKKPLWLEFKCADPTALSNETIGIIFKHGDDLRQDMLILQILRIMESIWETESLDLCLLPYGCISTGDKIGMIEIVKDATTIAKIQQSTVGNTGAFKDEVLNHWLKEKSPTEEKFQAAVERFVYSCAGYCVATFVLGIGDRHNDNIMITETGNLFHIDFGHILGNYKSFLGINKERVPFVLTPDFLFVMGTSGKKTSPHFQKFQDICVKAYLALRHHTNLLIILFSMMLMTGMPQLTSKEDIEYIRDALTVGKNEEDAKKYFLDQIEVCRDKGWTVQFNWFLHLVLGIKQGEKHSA
Chain of PI3Kα (P42336 whole entry, species assumed, canonical isoform): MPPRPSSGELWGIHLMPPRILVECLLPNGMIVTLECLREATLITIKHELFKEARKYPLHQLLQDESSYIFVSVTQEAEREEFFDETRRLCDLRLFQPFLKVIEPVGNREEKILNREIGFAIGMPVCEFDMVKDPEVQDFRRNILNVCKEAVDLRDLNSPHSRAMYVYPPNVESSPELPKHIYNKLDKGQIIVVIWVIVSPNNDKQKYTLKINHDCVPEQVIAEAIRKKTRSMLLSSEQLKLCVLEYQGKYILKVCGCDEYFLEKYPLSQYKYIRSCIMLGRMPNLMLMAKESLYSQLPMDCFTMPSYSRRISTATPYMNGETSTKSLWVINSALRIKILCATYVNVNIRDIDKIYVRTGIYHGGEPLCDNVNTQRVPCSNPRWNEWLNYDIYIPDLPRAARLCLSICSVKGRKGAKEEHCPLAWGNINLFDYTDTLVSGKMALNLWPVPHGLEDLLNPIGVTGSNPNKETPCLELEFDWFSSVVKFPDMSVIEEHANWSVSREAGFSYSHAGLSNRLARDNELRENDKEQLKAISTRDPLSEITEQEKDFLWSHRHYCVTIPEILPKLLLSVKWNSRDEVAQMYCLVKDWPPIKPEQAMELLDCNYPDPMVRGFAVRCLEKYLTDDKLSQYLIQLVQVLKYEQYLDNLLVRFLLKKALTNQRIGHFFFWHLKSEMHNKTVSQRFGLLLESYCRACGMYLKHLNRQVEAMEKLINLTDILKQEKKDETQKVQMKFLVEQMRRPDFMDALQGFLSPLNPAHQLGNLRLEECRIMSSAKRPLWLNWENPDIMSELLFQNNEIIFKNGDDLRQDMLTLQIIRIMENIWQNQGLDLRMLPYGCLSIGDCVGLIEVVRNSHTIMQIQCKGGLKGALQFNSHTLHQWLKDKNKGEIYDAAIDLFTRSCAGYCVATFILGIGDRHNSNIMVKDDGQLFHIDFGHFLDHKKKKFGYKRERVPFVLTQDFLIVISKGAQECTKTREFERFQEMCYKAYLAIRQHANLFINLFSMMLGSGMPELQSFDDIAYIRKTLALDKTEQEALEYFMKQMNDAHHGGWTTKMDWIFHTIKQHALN
Chain of PI3Kα (P27986 whole entry partner, species assumed, canonical isoform): as the sequence (P27986 whole entry partner, species assumed, canonical isoform) above

For `Cc1csc2nc(C(C)Nc3ncnc4[nH]cnc34)c(-c3cc(F)cc(F)c3)c(=O)n12` (single isomer, unassigned) [Example 44, 6-(3,5-difluorophenyl)-3-methyl-7-[1-(9H-purin-6-ylamino)ethyl]-5H-[1,3]thiazolo[3,2-a]pyrimidin-5-one], the IC50 at PI3Kα, at PI3Kβ and at PI3Kγ was over 500 nM each time.

As for `CCC(Nc1ncnc2[nH]cnc12)c1nc2cccc(C)n2c(=O)c1-c1cccnc1F` (centres unmarked) [Example 6, 3-(2-fluoropyridin-3-yl)-6-methyl-2-[1-(9H-purin-6-ylamino)propyl]-4H-pyrido[1,2-a]pyrimidin-4-one], the half-inhibitory concentration (IC50) (in general, the concentration that inhibits the measured activity by half) in assay [1] (Homo sapiens, Pfeiffer) fell in the range of 100 to 500 nM; with B cells (B-cell) it was 50 to 100 nM.

On to `CCC(Nc1ncnc2[nH]cnc12)c1nc2cccc(C)n2c(=O)c1-c1cn[nH]c1` (centres unmarked) [Example 7, 6-methyl-2-[1-(9H-purin-6-ylamino)propyl]-3-(1H-pyrazol-4-yl)-4H-pyrido[1,2-a]pyrimidin-4-one], for which the IC50 in assay [1] (Homo sapiens, Pfeiffer) was 500 to 1000 nM; in the assay on B cells (B-cell), over 500 nM.

With `Cc1csc2nc(C(C)Nc3ncnc4[nH]cnc34)c(-c3ccccc3)c(=O)n12` (centres unmarked) [Example 8, 3-methyl-6-phenyl-7-[1-(9H-purin-6-ylamino)ethyl]-5H-[1,3]thiazolo[3,2-a]pyrimidin-5-one], the half-maximal inhibitory concentration (IC50) in assay [1] (Homo sapiens, Pfeiffer) was under 50 nM; with B cells (B-cell), under 50 nM.

As for `Cc1csc2nc(C(C)Nc3nc(N)nc4[nH]cnc34)c(-c3ccccc3)c(=O)n12` (centres unmarked) [Example 9, 7-{1-[(2-amino-9H-purin-6-yl)amino]ethyl}-3-methyl-6-phenyl-5H-[1,3]thiazolo[3,2-a]pyrimidin-5-one], the half-inhibitory concentration (IC50) in assay [1] (Homo sapiens, Pfeiffer) is under 50 nM; in the assay with B cells (B-cell), under 50 nM.

As to `Cc1csc2nc(C(C)Nc3ncnc4[nH]cnc34)c(-c3cccc(F)c3)c(=O)n12` (centres unmarked) [Example 10, 6-(3-fluorophenyl)-3-methyl-7-[1-(9H-purin-6-ylamino)ethyl]-5H-[1,3]thiazolo[3,2-a]pyrimidin-5-one], the concentration for half-maximal inhibition (IC50) was under 50 nM in assay [1] (Homo sapiens, Pfeiffer) and under 50 nM in the assay on B cells (B-cell).

Regarding `Cc1csc2nc(C(C)Nc3nc(N)nc4[nH]cnc34)c(-c3cccc(F)c3)c(=O)n12` (centres unmarked) [Example 11, 7-{1-[(2-amino-9H-purin-6-yl)amino]ethyl}-6-(3-fluorophenyl)-3-methyl-5H-[1,3]thiazolo[3,2-a]pyrimidin-5-one], the IC50 in assay [1] (Homo sapiens, Pfeiffer) is under 50 nM; with B cells (B-cell), under 50 nM.

Take `Cc1csc2nc(C(C)Nc3ncnc4[nH]cnc34)c(-c3cccc(F)c3)c(=O)n12` (centres unmarked) [Example 30, 6-(3-fluorophenyl)-3-methyl-7-[1-(9H-purin-6-ylamino)ethyl]-5H-[1,3]thiazolo[3,2-a]pyrimidin-5-one]: the IC50 (in assay [1]; in the assay with B cells) was under 50 nM in each case.
